Data taken from article PMC4575030 (PLoS ONE, 2015).
“And” between values parts separate entries of the source, which are not always exact repeats. Equal values may be shown once. Read-outs that look alike come from different tables or passages of the source.

Assays:
hNav1.7 = target: T1, hNav1.7 (Homo sapiens, UniProt Q15858); assay: Manual whole cell patch clamp electrophysiology on HEK 293 cells stably expressing hNav1.7; assay type: cell-based
T1 construct: expressed in transfected cells; host or cells: HEK 293
Experimental: Except as indicated, recordings to determine potency of aminotriazines on Nav1.7 were made with manual electrophysiology. HEK 293 cells stably expressing hNav1.7 were voltage-clamped using the whole cell patch clamp configuration. Cells were plated onto 35 mm culture dishes 0–24 hours before recording, and tissue culture medium was exchanged for external solution containing (in mM) 140 NaCl, 5 KCl, 2 CaCl2, 1 MgCl2, 10 HEPES, 11 glucose, pH 7.4 with NaOH. Patch pipettes were pulled from borosilicate glass capillaries (1.2 mm outer diameter, World Precision Instruments, Sarasota, FL) with a P-97 pipette puller (Sutter Instruments, Novato, CA) and backfilled with internal solution containing (in mM) 62.5 CsCl, 75 CsF, 2.5 MgCl2, 5 EGTA, 10 HEPES, pH 7.25 with CsOH. Pipette resistances were between 1.5 and 2.0 MΩ. After formation of the whole-cell configuration, cells were lifted off the dish bottom with the patch pipette and positioned directly in front of a microarray of glass tubes (each tube internal diameter ~ 1 mm) with each tube containing continuously flowing control or test solution. A full current-voltage relation was recorded from each cell, and cells with poor space clamp as indicated by discontinuous I-V relation or by prolonged or nonexponential current kinetics were discarded. Solution switching was accomplished by moving the microarray with computer control via an RSC-160 rapid solution exchanger (Bio-Logic, Claix, France). Currents were recorded with an Axopatch 200B patch-clamp amplifier driven by pCLAMP software, filtered (4-pole Bessel) at 5 kHz during acquisition, and digitized at 20 kHz using pClamp9.2. Whole cell capacitance and series resistance were compensated at 0%- 80%, and reported voltages were uncorrected for liquid junction potentials. Recordings were made at room temperature. Concentration-response curves were taken by measuring inward Nav1.7 current every five to six seconds with a 10 ms to 20 ms depolarization to near the peak of the current-voltage relation, before and after steady-state inhibition by a given concentration of aminotriazine. For concentration response curves on partially inactivated channels, holding voltage was set to produce 20% fractional inactivation. […] Occasionally two compound concentrations were tested in parallel without resetting the voltage, if inhibition was rapid and the current level steady. […] Concentration response curves on non-inactivated channels generally were taken with multiple concentrations added in series without washoff of the previous concentration.

[1] = tested on: rat formalin model of pain; assay: Formalin test (formalin-induced flinching); assay type: in vivo; settings: for Analgesic efficacy: rat formalin model, significant (p < 0.05) decrease in flinching at a dose without a reduction in open field movement that obviated the result; for Reduction in formalin flinching, result in words: rat formalin test; for Decrease in formalin flinching: phase 2 (10 to 40 min), percent of vehicle
Experimental: Formalin-induced flinching was measured using the Automated Nociception Analyzer (ANA) (University Anesthesia Research & Development Group, La Jolla, CA). Rats were habituated to the ANA testing chambers for at least 30 minutes prior to the formalin injection. At test time, each rat was removed from the testing chamber and gently wrapped in a towel. 50 μL of 2.5% formalin solution was injected into the dorsal surface of the left hind paw with a 30 gauge needle. A small metal band was then affixed to the plantar side of the injected paw with one drop of super glue. The animal was then unwrapped from the towel, placed back in the testing chamber, and flinching behavior was scored for 40 minutes by the ANA software. While minimized, non-painful paw movement from the natural activity of an alert animal could be erroneously binned by the automated recording system as a nociceptive behavior. These behaviors are not subtracted from the flinching total. […] Total flinching behavior was used as the endpoint of the assay.

[2] = In vitro plasma protein binding; assay type: in vitro ADME
[3] = Terminal plasma and brain concentrations after behavioral testing; assay type: in vivo, rat; settings: for Kp: brain and plasma, ratio of concentrations measured following the formalin test; for Effective [plasma]: mean terminal plasma concentration at the lowest effective dose in the rat formalin test; for concentration at 160 min / Terminal plasma concentration: mean; for concentration at 160 min: n = 4; for Terminal plasma concentration: n = 8
rat Nav1.7 = rat Nav1.7 (Rattus norvegicus, UniProt O08562); assay: PatchXpress automated electrophysiology on rat Nav1.7; assay type: cell-based; settings: 20%-inactivated rat Nav1.7
naïve rats = assay: Open field activity (basic movement); assay type: in vivo, rat; settings: formalin-naïve rats
Experimental: Basic movement was measured using the Photobeam Activity System Open Field (San Diego Instruments, San Diego, CA) equipped with 48 infrared photocell emitters and detectors. Photobeams used to measure vertical movement were positioned 14 cm above the test chamber floor. Each testing chamber was made of Plexiglas (41 x 41 x 36 cm) and was devoid of any bedding. At the beginning of the test session, each animal was placed in a separate testing chamber and the room lights were turned off. Basic movement was measured for 30 minutes.

[4] = IC50 (μM) 20%-inactivated, 20%-inactivated human Nav1.7, holding voltage set to produce 20% fractional inactivation
[5] = non-inactivated human Nav1.7, holding voltage -140 mV or occasionally -120 mV, peak concentration tested 10 μM, read-out: IC50 (μM) Non-inactivated
[6] = 10 mg/kg p.o., negative value = increase
[7] = 30 mg/kg p.o., listed as compound A
[8] = 60 mg/kg p.o., listed as compound A

T1 sequence (Q15858 whole entry): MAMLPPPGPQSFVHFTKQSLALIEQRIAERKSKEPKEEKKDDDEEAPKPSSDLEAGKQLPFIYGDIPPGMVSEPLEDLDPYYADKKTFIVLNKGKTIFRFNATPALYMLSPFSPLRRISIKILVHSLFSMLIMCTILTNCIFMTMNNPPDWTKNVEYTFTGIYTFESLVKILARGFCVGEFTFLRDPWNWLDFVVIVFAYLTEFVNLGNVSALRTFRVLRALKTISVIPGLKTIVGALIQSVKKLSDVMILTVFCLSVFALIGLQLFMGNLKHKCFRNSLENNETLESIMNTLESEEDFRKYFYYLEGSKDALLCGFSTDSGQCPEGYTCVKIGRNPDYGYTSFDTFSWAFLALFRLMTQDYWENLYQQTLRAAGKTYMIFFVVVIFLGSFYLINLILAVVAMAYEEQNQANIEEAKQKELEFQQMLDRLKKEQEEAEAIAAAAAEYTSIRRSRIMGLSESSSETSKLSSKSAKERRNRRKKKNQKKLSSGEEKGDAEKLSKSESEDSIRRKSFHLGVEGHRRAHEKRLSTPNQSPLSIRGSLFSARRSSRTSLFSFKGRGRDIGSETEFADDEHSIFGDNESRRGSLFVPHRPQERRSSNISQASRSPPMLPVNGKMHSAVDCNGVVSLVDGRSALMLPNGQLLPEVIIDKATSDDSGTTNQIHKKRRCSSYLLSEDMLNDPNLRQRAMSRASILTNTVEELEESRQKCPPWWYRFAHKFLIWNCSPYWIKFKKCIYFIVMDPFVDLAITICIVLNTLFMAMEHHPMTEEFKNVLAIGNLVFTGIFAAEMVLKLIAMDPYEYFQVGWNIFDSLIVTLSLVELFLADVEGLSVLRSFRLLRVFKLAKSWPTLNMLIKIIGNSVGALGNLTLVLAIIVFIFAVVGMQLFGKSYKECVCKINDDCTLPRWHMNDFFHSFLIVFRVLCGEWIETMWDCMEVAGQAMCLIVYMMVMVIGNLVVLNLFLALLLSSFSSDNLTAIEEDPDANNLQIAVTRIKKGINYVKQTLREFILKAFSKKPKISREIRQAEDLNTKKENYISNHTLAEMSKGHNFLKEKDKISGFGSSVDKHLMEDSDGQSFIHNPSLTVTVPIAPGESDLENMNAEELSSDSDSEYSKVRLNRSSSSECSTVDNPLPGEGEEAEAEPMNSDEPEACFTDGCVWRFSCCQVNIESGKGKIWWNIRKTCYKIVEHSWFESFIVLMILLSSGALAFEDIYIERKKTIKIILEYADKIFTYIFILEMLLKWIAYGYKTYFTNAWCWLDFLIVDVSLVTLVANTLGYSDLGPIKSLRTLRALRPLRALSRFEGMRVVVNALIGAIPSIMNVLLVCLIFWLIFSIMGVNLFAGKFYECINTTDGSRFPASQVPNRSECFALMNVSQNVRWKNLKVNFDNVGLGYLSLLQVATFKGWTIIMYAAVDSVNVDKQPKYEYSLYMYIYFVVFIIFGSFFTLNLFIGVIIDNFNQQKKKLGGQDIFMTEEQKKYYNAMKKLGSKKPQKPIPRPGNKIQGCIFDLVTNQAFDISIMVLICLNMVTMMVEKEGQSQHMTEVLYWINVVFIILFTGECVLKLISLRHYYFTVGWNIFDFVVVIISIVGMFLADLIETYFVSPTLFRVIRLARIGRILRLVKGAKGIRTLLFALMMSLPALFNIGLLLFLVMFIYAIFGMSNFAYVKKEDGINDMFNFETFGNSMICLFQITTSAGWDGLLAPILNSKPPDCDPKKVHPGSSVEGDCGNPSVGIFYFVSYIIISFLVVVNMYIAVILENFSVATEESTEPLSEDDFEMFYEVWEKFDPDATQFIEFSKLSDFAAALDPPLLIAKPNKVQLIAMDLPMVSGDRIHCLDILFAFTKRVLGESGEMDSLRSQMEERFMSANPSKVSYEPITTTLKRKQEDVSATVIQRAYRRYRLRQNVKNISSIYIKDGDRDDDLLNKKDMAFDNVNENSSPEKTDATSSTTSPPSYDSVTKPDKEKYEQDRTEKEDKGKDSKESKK
Chain of rat Nav1.7 (O08562 whole entry): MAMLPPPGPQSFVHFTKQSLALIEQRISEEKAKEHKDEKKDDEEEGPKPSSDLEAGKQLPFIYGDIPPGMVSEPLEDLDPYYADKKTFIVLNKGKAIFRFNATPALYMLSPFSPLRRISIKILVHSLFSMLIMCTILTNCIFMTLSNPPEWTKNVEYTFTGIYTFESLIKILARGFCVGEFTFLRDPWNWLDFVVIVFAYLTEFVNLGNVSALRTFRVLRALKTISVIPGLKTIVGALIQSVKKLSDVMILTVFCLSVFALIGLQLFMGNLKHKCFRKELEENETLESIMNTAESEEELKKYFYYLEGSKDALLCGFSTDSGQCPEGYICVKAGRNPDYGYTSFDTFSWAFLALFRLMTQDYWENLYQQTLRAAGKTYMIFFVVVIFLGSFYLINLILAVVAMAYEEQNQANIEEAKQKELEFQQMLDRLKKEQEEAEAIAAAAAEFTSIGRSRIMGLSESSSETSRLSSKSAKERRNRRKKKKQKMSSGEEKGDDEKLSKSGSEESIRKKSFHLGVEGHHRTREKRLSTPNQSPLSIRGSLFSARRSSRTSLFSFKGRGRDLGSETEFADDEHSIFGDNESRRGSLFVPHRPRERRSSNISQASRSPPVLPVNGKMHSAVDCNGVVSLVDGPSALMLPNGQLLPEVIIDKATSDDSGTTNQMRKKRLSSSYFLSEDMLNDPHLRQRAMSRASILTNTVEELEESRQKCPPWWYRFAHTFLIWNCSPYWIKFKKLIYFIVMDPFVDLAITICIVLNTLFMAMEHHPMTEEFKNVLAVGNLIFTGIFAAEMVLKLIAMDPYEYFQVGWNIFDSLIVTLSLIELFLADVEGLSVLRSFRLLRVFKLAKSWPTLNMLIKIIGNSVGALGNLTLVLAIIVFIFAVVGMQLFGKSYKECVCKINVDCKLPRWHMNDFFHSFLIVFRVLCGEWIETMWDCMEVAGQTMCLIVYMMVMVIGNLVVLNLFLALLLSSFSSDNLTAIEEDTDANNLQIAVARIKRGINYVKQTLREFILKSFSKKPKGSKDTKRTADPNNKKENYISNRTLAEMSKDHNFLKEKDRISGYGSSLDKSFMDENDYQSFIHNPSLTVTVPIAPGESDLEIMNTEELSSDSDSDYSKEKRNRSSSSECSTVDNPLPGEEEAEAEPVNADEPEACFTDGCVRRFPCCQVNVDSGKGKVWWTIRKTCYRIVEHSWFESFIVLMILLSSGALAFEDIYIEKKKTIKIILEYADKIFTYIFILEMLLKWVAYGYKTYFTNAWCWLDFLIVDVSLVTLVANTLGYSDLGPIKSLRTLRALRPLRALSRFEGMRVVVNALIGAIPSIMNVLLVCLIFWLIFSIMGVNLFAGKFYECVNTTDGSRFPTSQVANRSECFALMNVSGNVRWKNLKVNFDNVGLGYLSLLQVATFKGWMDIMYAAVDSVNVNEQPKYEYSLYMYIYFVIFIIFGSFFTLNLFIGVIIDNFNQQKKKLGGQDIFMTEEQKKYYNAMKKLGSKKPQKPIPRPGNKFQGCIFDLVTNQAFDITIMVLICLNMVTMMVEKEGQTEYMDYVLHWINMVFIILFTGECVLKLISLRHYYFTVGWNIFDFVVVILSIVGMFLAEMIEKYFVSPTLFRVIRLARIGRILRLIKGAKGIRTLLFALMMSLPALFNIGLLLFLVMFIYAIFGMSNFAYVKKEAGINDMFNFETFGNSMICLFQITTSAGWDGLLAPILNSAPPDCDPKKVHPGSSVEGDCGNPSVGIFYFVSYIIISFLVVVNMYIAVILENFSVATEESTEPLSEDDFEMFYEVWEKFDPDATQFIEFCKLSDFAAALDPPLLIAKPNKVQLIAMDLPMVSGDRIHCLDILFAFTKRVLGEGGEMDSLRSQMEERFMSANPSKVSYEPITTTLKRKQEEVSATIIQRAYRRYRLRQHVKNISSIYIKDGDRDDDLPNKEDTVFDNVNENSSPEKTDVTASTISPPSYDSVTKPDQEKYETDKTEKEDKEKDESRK

CC(=O)Nc1cccc(Nc2ncnc(N3CCC(Oc4ccc(Cl)c(F)c4)CC3)n2)c1C [Compound G, N-(3-((4-(4-(4-chloro-3-fluorophenoxy)-1-piperidinyl)-1,3,5-triazin-2-yl)amino)-2-methylphenyl)acetamide]
IC50 (hNav1.7; [4]): 0.3 µM
IC50 (hNav1.7; [5]): 6.6 µM
Analgesic efficacy [1]: No
Reduction in formalin flinching, result in words [1]: did not achieve statistically significant reversals in formalin flinching
fraction unbound [2]: 0.006
Kp ([3]; rat): 0.09
IC50 (rat Nav1.7): 800 nM

CC(=O)Nc1cccc(Nc2ncnc(N3CCC(Oc4ccc(Cl)c(C)c4)CC3)n2)c1C [Compound B, N-(3-((4-(4-(4-chloro-3-methylphenoxy)-1-piperidinyl)-1,3,5-triazin-2-yl)amino)-2-methylphenyl)acetamide]
IC50 (hNav1.7; [4]): 0.5 µM
IC50 (hNav1.7; [5]): > 10 µM
Decrease in basic movement (naïve rats; 30 mg/kg p.o.): 5.6%
Decrease in basic movement (naïve rats; 60 mg/kg p.o.): 19%
Decrease in formalin flinching ([1]; 10 mg/kg p.o.): 17%
Decrease in formalin flinching ([1]; 30 mg/kg p.o.): 30%
Decrease in formalin flinching ([1]; 60 mg/kg p.o.): 39%
Analgesic efficacy [1]: Yes
Reduction in formalin flinching, result in words [1]: statistically significant and plasma concentration-dependent reduction in formalin flinching
fraction unbound [2]: 0.006
Effective [plasma] [3]: 8.75 µM
IC50 (rat Nav1.7): 3500 nM

CC(=O)Nc1cccc(Nc2ncnc(N3CCC(OCc4ccccc4)CC3)n2)c1 [Compound H, N-(3-((4-(4-(benzyloxy)-1-piperidinyl)-1,3,5-triazin-2-yl)amino)phenyl)acetamide]
Analgesic efficacy [1]: No
Reduction in formalin flinching, result in words [1]: did not achieve statistically significant reversals in formalin flinching

CC(=O)Nc1cccc(Nc2ncnc(N3CCc4cc(OC(F)(F)F)ccc4C3)n2)c1 [Compound F, N-(3-((4-(6-(trifluoromethoxy)-3,4-dihydro-2(1H)-isoquinolinyl)-1,3,5-triazin-2-yl)amino)phenyl)acetamide]
IC50 (hNav1.7; [4]): 0.18 µM
IC50 (hNav1.7; [5]): > 10 µM
Decrease in basic movement (naïve rats; [6]): 11%
Decrease in basic movement (naïve rats; 30 mg/kg p.o.): 33%
Decrease in basic movement (naïve rats; 100 mg/kg p.o.): 54%
Decrease in formalin flinching ([1]; 10 mg/kg p.o.): 0%
Decrease in formalin flinching ([1]; 30 mg/kg p.o.): 35%
Decrease in formalin flinching ([1]; 100 mg/kg p.o.): 67%
Analgesic efficacy [1]: Yes
Reduction in formalin flinching, result in words [1]: statistically significant and plasma concentration-dependent reduction in formalin flinching
fraction unbound [2]: 0.001
Kp ([3]; rat): 0.33
Effective [plasma] [3]: 3.70 µM
IC50 (rat Nav1.7): 1000 nM

CN1C(=O)CN=C(c2ccccc2)c2cc(Cl)ccc21 [Diazepam, diazepam, reference compound]
Reduction in formalin-induced flinching ([1]; diazepam 10 mg/kg, lowest dose with statistically significant reduction): 22%

CC(=O)Nc1cccc(Nc2ncnc(N3CCC(Oc4ccc(Cl)cc4)CC3)n2)c1C [Compound A, N-(3-((4-(4-(4-chlorophenoxy)-1-piperidinyl)-1,3,5-triazin-2-yl)amino)-2-methylphenyl)acetamide]
IC50 (hNav1.7; [4]): 0.19 µM
IC50 (hNav1.7; [5]): > 10 µM
Decrease in basic movement (naïve rats; [6]): -4.2%
Decrease in basic movement (naïve rats; 30 mg/kg p.o.): 13.5% and 14%
Decrease in basic movement (naïve rats; [7]): 14%
Decrease in basic movement (naïve rats; 60 mg/kg p.o.): 46%
Decrease in basic movement (naïve rats; [8]): 46%
Decrease in formalin flinching ([1]; 10 mg/kg p.o.): 31.4% and 32%
Decrease in formalin flinching ([1]; 10 mg/kg p.o., listed as compound A): 32%
Decrease in formalin flinching ([1]; 30 mg/kg p.o.): 66.1% and 66%
Decrease in formalin flinching [1, 7]: 66%
Decrease in formalin flinching ([1]; 60 mg/kg p.o.): 85%
Decrease in formalin flinching [1, 8]: 85% and 84.6%
Analgesic efficacy [1]: Yes
fraction unbound [2]: 0.013
Kp ([3]; rat): 0.1
concentration at 160 min ([3]; formalin test, 10 mg/kg p.o.): 280 nM
Terminal plasma concentration ([3]; formalin test, 10 mg/kg p.o.): 3.02 µM
concentration at 160 min ([3]; formalin test, 30 mg/kg p.o.): 880 nM
Terminal plasma concentration ([3]; formalin test, 30 mg/kg p.o.): 8.07 µM
Terminal plasma concentration ([3]; formalin test, 60 mg/kg p.o.): 13.5 µM
Effective [plasma] [3]: 3.02 µM
Terminal plasma concentration ([3]; open field test, 10 mg/kg p.o.): 2.75 µM
Terminal plasma concentration ([3]; open field test, 30 mg/kg p.o.): 5.53 µM
Terminal plasma concentration ([3]; open field test, 60 mg/kg p.o.): 13.0 µM
concentration at 160 min ([3]; rat, brain, po, formalin test, 60 mg/kg p.o.): 1540 nM
IC50 (rat Nav1.7): 520 nM

CC(=O)Nc1cccc(Nc2ncnc(N3CCC(OCc4ccc(F)c(F)c4)CC3)n2)c1C [Compound D, N-(3-((4-(4-((3,4-difluorobenzyl)oxy)-1-piperidinyl)-1,3,5-triazin-2-yl)amino)-2-methylphenyl)acetamide]
IC50 (hNav1.7; [4]): 0.6 µM
IC50 (hNav1.7; [5]): > 10 µM
Increase in basic movement (in parentheses in the column Decrease in basic movement) (naïve rats; 10 mg/kg p.o., value in parentheses corresponds to a measured increase): (1.4%)
Decrease in basic movement (naïve rats; 30 mg/kg p.o.): 28%
Decrease in basic movement (naïve rats; 60 mg/kg p.o.): 50%
Decrease in formalin flinching ([1]; 10 mg/kg p.o.): 36%
Decrease in formalin flinching ([1]; 30 mg/kg p.o.): 62%
Decrease in formalin flinching ([1]; 60 mg/kg p.o.): 83%
Analgesic efficacy [1]: Yes
Reduction in formalin flinching, result in words [1]: statistically significant and plasma concentration-dependent reduction in formalin flinching
fraction unbound [2]: 0.067
Kp ([3]; rat): 0.19
Effective [plasma] [3]: 1.27 µM
IC50 (rat Nav1.7): 1700 nM

CC(=O)Nc1cccc(Nc2ncnc(N3CC(Oc4ccc(F)cc4)C3)n2)c1C [Compound C, N-(3-((4-(3-(4-fluorophenoxy)-1-azetidinyl)-1,3,5-triazin-2-yl)amino)-2-methylphenyl)acetamide]
IC50 (hNav1.7; [4]): 1.3 µM
IC50 (hNav1.7; [5]): > 10 µM
Decrease in basic movement (naïve rats; 3 mg/kg p.o.): 6.8%
Decrease in basic movement (naïve rats; [6]): 8.5%
Decrease in basic movement (naïve rats; 30 mg/kg p.o.): 23%
Decrease in formalin flinching ([1]; 3 mg/kg p.o.): 14%
Decrease in formalin flinching ([1]; 10 mg/kg p.o.): 35%
Decrease in formalin flinching ([1]; 30 mg/kg p.o.): 53%
Analgesic efficacy [1]: Yes
Reduction in formalin flinching, result in words [1]: statistically significant and plasma concentration-dependent reduction in formalin flinching
fraction unbound [2]: 0.164
Kp ([3]; rat): 0.03
Effective [plasma] [3]: 3.68 µM
IC50 (rat Nav1.7): 4900 nM
